According to ChEMBL document CHEMBL1201862, “PubChem BioAssay data set” (2004):
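Exposure lasted 48 hours, with cells grown in 96-well plates and compounds tested at five concentrations. At the GI50, growth is halved.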 Activity calls are given as the source filed them. No stated cut-off is given here; in the data, active = GI50 up to about 1.1 µM and inactive = higher.

Columns and labels:
Assay in all cases: inhibition of tumour cell growth, NCI panel, 48 h
K562 = test system: K562
SNB-19 = test system: SNB-19
CCRF-CEM = test system: CCRF-CEM
RPMI-8226 = test system: RPMI-8226
KM12 = test system: KM12
TK-10 = test system: TK-10
SNB-78 = test system: SNB-78
OVCAR-4 = test system: OVCAR-4
Malme-3M = test system: Malme-3M
EKVX = test system: EKVX
COLO 205 = test system: COLO 205
HCT-15 = test system: HCT-15
NCI-H522 = test system: NCI-H522
SK-MEL-28 = test system: SK-MEL-28
LOX IMVI = test system: LOX IMVI
UACC-62 = test system: UACC-62
MOLT-4 = test system: MOLT-4

Row | Structure (SMILES) | GI50 (K562) | GI50 (SNB-19) | GI50 (CCRF-CEM) | GI50 (RPMI-8226) | GI50 (KM12) | GI50 (TK-10) | GI50 (SNB-78) | GI50 (OVCAR-4) | GI50 (Malme-3M) | GI50 (EKVX) | GI50 (COLO 205) | GI50 (HCT-15) [µM] | GI50 (NCI-H522) | GI50 (SK-MEL-28) | GI50 (LOX IMVI) | GI50 (UACC-62) | GI50 (MOLT-4)
1 | CC1CC(C2=CC=CCS2)=Nc2ccccc2S1 (stereo unspecified) | > 100 µM (inactive) | 71.3 µM (inactive) | > 100 µM (inactive) | 97.5 µM (inactive) | > 100 µM (inactive) | > 100 µM (inactive) | > 100 µM (inactive) | > 100 µM (inactive) | > 100 µM (inactive) | > 100 µM (inactive) | > 100 µM (inactive) | > 100 | 92.3 µM (inactive) | > 100 µM (inactive) | > 100 µM (inactive) | > 100 µM (inactive) | > 100 µM (inactive)
2 | CC(C)N(C(=O)C12C3C4C5C3C1(C(=O)N(C(C)C)C(C)C)C5C42)C(C)C (stereo unspecified) | > 39.2 µM (inactive) | > 100 µM (inactive) | > 47.1 µM (inactive) | > 44.7 µM (inactive) | > 100 µM (inactive) | > 100 µM (inactive) | > 100 µM (inactive) | > 100 µM (inactive) | > 100 µM (inactive) | > 100 µM (inactive) | > 44.5 µM (inactive) | > 71.8 | > 100 µM (inactive) | > 100 µM (inactive) | > 46.8 µM (inactive) | > 100 µM (inactive) | 68.9 µM (inactive)
3 | Cc1cccc(C)c1NC(=O)/C(=N/NC(N)=S)C(C)C(=O)c1ccc(Cl)cc1 (stereo unspecified) | > 100 µM (inactive) | > 100 µM (inactive) | > 100 µM (inactive) | > 100 µM (inactive) | > 100 µM (inactive) | > 100 µM (inactive) | > 100 µM (inactive) | 78.5 µM (inactive) | > 100 µM (inactive) | > 100 µM (inactive) | > 100 µM (inactive) | > 100 | 89.9 µM (inactive) | > 100 µM (inactive) |  | > 100 µM (inactive) | > 100 µM (inactive)
4 | NC1=NN(c2ccccc2)C(=O)C1/C(=N\NC(=O)c1cc2ccccc2cc1O)C(=O)Nc1nc([N+](=O)[O-])cs1 (stereo unspecified) | 9.64 µM (inactive) | > 60.1 µM (inactive) | 17.3 µM (inactive) | 9.59 µM (inactive) | 30.3 µM (inactive) | 38.5 µM (inactive) | > 100 µM (inactive) | 33.7 µM (inactive) | > 65 µM (inactive) | 47.3 µM (inactive) | 23.7 µM (inactive) | 24.3 | 19.1 µM (inactive) | 42.7 µM (inactive) | 18.4 µM (inactive) | 19.6 µM (inactive) | 3.6 µM (inactive)
5 | O=C1/C(=C/c2cc(O)c(O)c(O)c2)Oc2cc(O)cc(OC3OC(CO)C(O)C(O)C3O)c21 (stereo unspecified) | 16.9 µM (inactive) | > 100 µM (inactive) | 17.5 µM (inactive) | 20.2 µM (inactive) | 29.6 µM (inactive) | 30.5 µM (inactive) | 19.4 µM (inactive) | 2.06 µM (inactive) |  | 43.6 µM (inactive) | 22.2 µM (inactive) | 22.4 |  | 46.3 µM (inactive) | 1.73 µM (inactive) | 16 µM (inactive) | 19.1 µM (inactive)
6 | COC(=O)/C(=C/c1ccc(OC)cc1)C(C(=O)O)=C1CCCC1 | > 100 µM (inactive) | > 100 µM (inactive) | > 100 µM (inactive) | > 100 µM (inactive) | > 100 µM (inactive) | > 100 µM (inactive) | > 100 µM (inactive) | > 100 µM (inactive) |  | > 100 µM (inactive) | > 100 µM (inactive) | > 100 | > 100 µM (inactive) |  | > 100 µM (inactive) | > 100 µM (inactive) | > 100 µM (inactive)
7 | CC(C)=CCOc1ccc(-c2coc3cc4c(c(O)c3c2=O)C=CC(C)(C)O4)cc1 | 0.389 µM (active) | 56 µM (inactive) | 43.5 µM (inactive) | 27.3 µM (inactive) | > 100 µM (inactive) | > 100 µM (inactive) | 59.3 µM (inactive) | 16.7 µM (inactive) |  | 5.22 µM (inactive) | > 100 µM (inactive) | 21 | 0.129 µM (active) | 91.4 µM (inactive) | 1.7 µM (inactive) |  | > 100 µM (inactive)
8 | CCOc1ccccc1NC(=O)C(=O)Cc1nc2ccccc2s1 |  | > 100 µM (inactive) | > 100 µM (inactive) |  | > 100 µM (inactive) | > 100 µM (inactive) | > 100 µM (inactive) | 90.4 µM (inactive) | > 100 µM (inactive) | > 100 µM (inactive) | > 100 µM (inactive) | > 100 | > 100 µM (inactive) | > 100 µM (inactive) |  | > 100 µM (inactive) | > 100 µM (inactive)
9 | O=[PH](O)c1cc2c3ccccc3ccc2c2ccccc12 | > 100 µM (inactive) | > 100 µM (inactive) | > 100 µM (inactive) | > 100 µM (inactive) | > 100 µM (inactive) | > 100 µM (inactive) | > 100 µM (inactive) | > 100 µM (inactive) |  | > 100 µM (inactive) | > 100 µM (inactive) |  | > 100 µM (inactive) | > 100 µM (inactive) | > 100 µM (inactive) | > 100 µM (inactive) | > 100 µM (inactive)
